Data taken from patent US20120022033A1, “Methods for decreasing cardiovascular risk in postmenopausal women” (BIOSANTE PHARMACEUTICALS, INC., priority 2010, published 2012).

System: postmenopausal women at high risk for cardiovascular events
Test: Randomized, double-blind, placebo-controlled, multi-center Phase 3 study; observed vs expected cardiovascular events
Format: in vivo
Conditions: postmenopausal women at high risk for cardiovascular disease, compared with untreated group
Text: The following example calculates the expected number of cardiovascular events in a population of postmenopausal women derived from historical data. The estimate of the expected rate of cardiovascular events has been determined from the event rates noted in the Women's Health Initiative (WHI), a Department of Health and Human Services National Institute of Health-sponsored study of women between 50 and 79 years of age, a similar set of women between that age were enrolled for determining the actual number of cardiovascular events as described in Example 2.
Overall, the cardiovascular event rate in women in the WHI study who had at least one cardiovascular risk factor was approximately 2-fold greater than in women without any cardiovascular risk factors. […]
The study consisted of a screening period of up to 8 weeks and a 60-month treatment period. […] Adverse cardiovascular and breast cancer events (ABC events) were assessed at each subject contact in addition to the usual assessments of safety and concomitant medications. […]
There were eight adjudicated cardiovascular events determined from this Phase 3 clinical trial after greater than 4,000 woman-years of therapy.

C[C@]12CC[C@H]3[C@@H](CCC4=CC(=O)CC[C@@]43C)[C@@H]1CC[C@@H]2O [testosterone, testosterone (17-β-hydroxyandrostenone)]
risk of having a cardiovascular event (result in words): decreases in the risk of having a cardiovascular event
